*1 amine or outer side, *2 acyl side, *3 side chain or, on linkers, in order; H or OH if unused. Where a SMILES comes first, the peptide text is derived from it. Bridges are numbered along the chain shown (N, C = ends). Roman numbers before positions name the chains, in order. [ ]: non-standard residue; d: D form. Actinocin(9to1) = Cc1c2oc3c(C)ccc(C(=O)[*:1])c3nc-2c(C(=O)[*:2])c(N)c1=O; NMeV = CN[C@H](C(=O)O)C(C)C; Sar = CNCC(=O)O
Tests used:
Assay type in all cases: cell-based, human
[1] = test system: c-MYC mRNA; assay: qRT-PCR of c-MYC mRNA; conditions: HL-60 released from double thymidine block, 2 hrs; MG149 200 μM, TH1834 500 μM
Method: Total RNA isolation was carried out and all RNA samples used in this study were treated with DNase I (10 U of DNase I per 3 μg of total RNA; 37° C. for one hour; in the presence of RNase inhibitor). After DNase I treatment, RNA samples were extracted with acidic phenol (pH 4.3) to eliminate any remaining traces of DNA. cDNA syntheses were performed with Random Primers (Invitrogen) or gene-specific primers with Transcriptor Reverse Transcriptase (Roche Applied Science) according to the manufacturer's recommendation. cDNA was purified with a High Pure PCR Product Purification Kit (Roche Applied Science).
Sybr green reaction was performed using iQ Sybr Green supermix (Biorad, Hercules, CA) using the following parameters: 95° C. (10 min), 40 cycles of 95° C. (15 s) and 60° C. (1 min) 72° C. (1 min). TaqMan analysis was performed using Hotstart Probe One-step qRT-PCR master mix (USB) at the following conditions: 50° C. (10 min.), 95° C. (2 min.), and then 40 cycles of 95° C. (15 sec.) and 60° C. (60 sec.).
Nascent RNA/DNA capture was performed using Click-iT Nascent RNA Capture Kit (ThermoFisher) according to the manufacturer's instructions with minor modifications. Briefly, 1. Labeling the cells with EU/EdU. 200 mM EU or 30 mM EdU stock solutions were added to the cells, to a final concentration 0.5 mM or 30 μM, respectively. 2. Incubation. The cells were incubated for 1 or 2 hours. 3. […]

[2] = test system: acH2A.Z; assay: Western blot of total proteins, acH2A.Z normalized by H2A.Z; conditions: HL-60, 2 hours; 200 μM MG149, 500 μM TH1834
Method: (§1) Whole-cell lysates from approximately 0.2×10^6 cells per each sample were separated on 12% SDS-PAGE gels and transferred to a nitrocellulose membrane. Immunoblots were stained overnight at 4° C. with the following primary antibodies: H2A.Z (1:2,000; Abcam ab4174), H2A.Z acetyl (K4+K7+K11) (1:2,000; Abcam ab18262) or TIP60 (1:1000; generous gift from Bruno Amati). All secondary horseradish peroxidase (HRP)-conjugated antibodies were diluted 1:5,000 and incubated for 1 hr at room temperature with TBST/5% BSA. Immuno-reactive proteins were detected using the Pierce® ECL system (Thermo Scientific #32106).

[3] = test system: H2A.Z; assay: Western blot of total proteins, H2A.Z; conditions: HL-60, 2 hours treatment, FIG. 10A
Method: as §1

[4] = test system: TIP60; assay: Western blot of total proteins, TIP60; conditions: HL-60, 2 hours treatment, FIG. 10A
Method: as §1

## CCCCCCCc1ccc(CCc2cccc(O)c2C(=O)O)cc1 [MG149]
[1]
  response of total c-MYC mRNA: downregulated
[2]
  level of acH2A.Z normalized by H2A.Z: Reduction

## Cc1c2oc3c(C)ccc(C(=O)N[C@@H]4C(=O)N[C@H](C(C)C)C(=O)N5CCC[C@H]5C(=O)N(C)CC(=O)N(C)[C@@H](C(C)C)C(=O)O[C@@H]4C)c3nc-2c(C(=O)N[C@@H]2C(=O)N[C@H](C(C)C)C(=O)N3CCC[C@H]3C(=O)N(C)CC(=O)N(C)[C@@H](C(C)C)C(=O)O[C@@H]2C)c(N)c1=O [ActD, Actinomycin D] (I: T[dV]P[Sar][NMeV] / II: T[dV]P[Sar][NMeV]; ester I:1-I:C, II:1-II:C; linker I:N-II:N via Actinocin(9to1))
[3]
  overall global content of H2A.Z: not affected
[4]
  overall global content of TIP60: not affected

## O=C(O)Cn1nnc(-c2ccc(CN(CCCCOc3ccc(CN4CCCC4)cc3)CCc3ccccc3)cc2)n1 [TH1834]
[1]
  response of total c-MYC mRNA: downregulated
[2]
  level of acH2A.Z normalized by H2A.Z: Reduction

## OC[C@H]1O[C@@H](n2cnc3cc(Cl)c(Cl)cc32)[C@H](O)[C@@H]1O [DRB, 5,6-Dichlorobenzimidazole 1-β-D-ribofuranoside]
[3]
  overall global content of H2A.Z: not affected
[4]
  overall global content of TIP60: not affected
